Counter-ions that a name gives are not always drawn.
Key:
[1] = test system: NQO1 specific enzyme activity in BEAS-2B cells (marker for NRF2 activation); experiment: BEAS-2B NQO1 MTT Assay; type: cell-based; details: Homo sapiens, BEAS-2B, 48 h, NQO1 specific activity induction, 48 hours with compound
In short: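 BEAS-2B cells were plated at 250,000 cells/mL and treated after overnight culture with compound for 48 h at 37° C, 5% CO2. NQO1 activity in crude lysates was read kinetically as MTT reduction at 570 nm over 30 min. pEC50 comes from ΔOD/min versus log concentration with a 3-parameter fit.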

[2] = test system: rats on a choline-deficient L-amino acid-defined diet; details: cited from earlier work
[3] = test system: COPD macrophages and alveolar macrophages from cigarette smoke-exposed mice; details: cited from earlier work
[4] = test system: rats in a cerebral ischemia-reperfusion model; details: cited from earlier work
[5] = test system: NRF2 wild-type and KO mice; details: after administration, NRF2 wild-type vs KO mice; cited from earlier work

Row | SMILES | EC50 [1] [nM] | also measured
1 | CC[C@@H]1CN(Cc2cc([C@@H](c3ccc4c(nnn4CC)c3C)C(C)(C)C(=O)O)sc2C)Cc2ncccc2O1 [Example 60, (S)-3-(4-(((R)-2-Ethyl-2,3-dihydropyrido[2,3-f][1,4]oxazepin-4(5H)-yl)methyl)-5-methylthiophen-2-yl)-3-(1-ethyl-4-methyl-1H-benzo[d][1,2,3]triazol-5-yl)-2,2-dimethylpropanoic Acid] | 1 to 10 | –
2 | CCn1cc(CC[C@@H](c2cc(CN3C[C@@H](C)Cc4ncccc4S3(=O)=O)c(C)s2)C(C)(C)C(=O)O)nn1 [Example 61, (R)-5-(1-Ethyl-1H-1,2,3-triazol-4-yl)-2,2-dimethyl-3-(5-methyl-4-(((S)-4-methyl-1,1-dioxido-4,5-dihydropyrido[2,3-f][1,2]thiazepin-2(3H)-yl)methyl)thiophen-2-yl)pentanoic Acid] | 1 to 10 | –
3 | CCn1cc(CC[C@H](c2cc(CN3C[C@@H](C)Cc4ncccc4S3(=O)=O)c(C)s2)C(C)(C)C(=O)O)nn1 [Example 62, (S)-5-(1-Ethyl-1H-1,2,3-triazol-4-yl)-2,2-dimethyl-3-(5-methyl-4-(((S)-4-methyl-1,1-dioxido-4,5-dihydropyrido[2,3-f][1,2]thiazepin-2(3H)-yl)methyl)thiophen-2-yl)pentanoic Acid] | 1 to 10 | –
4 | CC[C@@H]1CN(Cc2cc([C@@H](CCc3cn(CC)nn3)C(C)(C)C(=O)O)sc2C)S(=O)(=O)c2ccccc2O1 [Example 63, (S)-3-(4-(((R)-4-Ethyl-1,1-dioxido-3,4-dihydro-2H-benzo[b][1,4,5]oxathiazepin-2-yl)methyl)-5-methylthiophen-2-yl)-5-(1-ethyl-1H-1,2,3-triazol-4-yl)-2,2-dimethylpentanoic Acid] | 1 to 10 | –
5 | CC[C@@H]1CN(Cc2cc([C@H](CCc3cn(CC)nn3)C(C)(C)C(=O)O)sc2C)S(=O)(=O)c2ccccc2O1 [Example 64, (R)-3-(4-(((R)-4-Ethyl-1,1-dioxido-3,4-dihydro-2H-benzo[b][1,4,5]oxathiazepin-2-yl)methyl)-5-methylthiophen-2-yl)-5-(1-ethyl-1H-1,2,3-triazol-4-yl)-2,2-dimethylpentanoic Acid] | < 1 | –
6 | CC[C@@H]1CN(Cc2cc([C@@H](c3ccc4c(nnn4CC)c3C)C(C)(C)C(=O)Nc3nnn[nH]3)sc2C)S(=O)(=O)c2ccccc2O1 [Example 65, (S)-3-(4-(((R)-4-Ethyl-1,1-dioxido-3,4-dihydro-2H-benzo[b][1,4,5]oxathiazepin-2-yl)methyl)-5-methylthiophen-2-yl)-3-(1-ethyl-4-methyl-1H-benzo[d][1,2,3]triazol-5-yl)-2,2-dimethyl-N-(1H-tetrazol-5-yl)propanamide, 0.10Formic Acid Salt] | 10 to 100 | –
7 | O=C(NCc1ccccn1)Nc1nnc(-c2ccco2)o1 [NK-252] | – | progression of histologic abnormalities, especially hepatic fibrosis [2]: significantly attenuated progression
8 | C[S+]([O-])CCCCN=C=S (stereo not drawn) [Sulforaphane] | – | expression of Macrophage Receptor with Collagenous structure (MARCO) ([3]; COPD macrophages and alveolar macrophages from cigarette smoke-exposed mice): increases the expression of Macrophage Receptor with Collagenous structure (MARCO); bacterial phagocytosis (Pseudomonas aeruginosa, non-typable Haemophilus influenzae) and bacterial clearance ([3]; ex vivo and in vivo): improving in these cells bacterial phagocytosis
9 | Cc1c(-c2cnccn2)ssc1=S [oltipraz] | – | progression of histologic abnormalities, especially hepatic fibrosis [2]: significantly attenuated progression
10 | CC(C)(C)c1cc(O)ccc1O [tBHQ, tert-butylhydroquinone] | – | cortical damage [4]: reduced cortical damage; cortical glutathione levels [5]: increased in NRF2 wild-type but not KO mice

— US11117905B2, “Bisaryl heterocycles as NRF2 activators” (GLAXOSMITHKLINE INTELLECTUAL PROPERTY DEVELOPMENT LIMITED, priority 2016, dated 2021)
